How the values were obtained:
[1] = target: T1, human α2A-adrenergic receptor (hα2A; αh2A) (Homo sapiens, UniProt P08913); experiment: radioligand binding, filtration, Sf9 membranes; settings: labelled compound, […]; […] Tris-HCl pH […] MgCl2, […] EDTA; […] h
T1 sequence (P08913 1-465): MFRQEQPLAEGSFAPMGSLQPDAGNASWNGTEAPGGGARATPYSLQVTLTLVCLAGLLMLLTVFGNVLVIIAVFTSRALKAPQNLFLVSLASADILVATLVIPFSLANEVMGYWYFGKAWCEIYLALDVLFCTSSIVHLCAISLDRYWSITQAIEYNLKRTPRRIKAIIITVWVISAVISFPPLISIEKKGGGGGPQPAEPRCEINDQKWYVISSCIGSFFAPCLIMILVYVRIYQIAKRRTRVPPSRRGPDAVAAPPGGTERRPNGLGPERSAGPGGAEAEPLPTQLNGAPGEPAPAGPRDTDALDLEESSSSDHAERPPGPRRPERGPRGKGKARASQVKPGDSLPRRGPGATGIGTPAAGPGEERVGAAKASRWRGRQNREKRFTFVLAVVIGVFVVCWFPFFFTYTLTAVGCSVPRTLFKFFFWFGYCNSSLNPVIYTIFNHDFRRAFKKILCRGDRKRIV

[2] = target: T1, human α2A-adrenergic receptor (hα2A; αh2A); experiment: [3H]RX821002 displacement, filtration, Sf9 membranes; format: binding; settings: […] [3H]RX821002; […] Tris-HCl pH […] MgCl2, […] EDTA

| SMILES | radioligand binding, filtration, Sf9 membranes [1] | [3H]RX821002 displacement, filtration, Sf9 membranes [2] |
| --- | --- | --- |
| COC1(C2=NCCN2)COc2ccccc2O1 (stereo not shown) [RX821002] | [^3H]RX821002 binding was concentration-dependently inhibited by increasing concentrations of both norepinephrine and dopamine | – |
| CN1CCc2cc(Cl)c(O)cc2[C@@H](c2ccccc2)C1 [SCH-23390] | – | apomorphine, SCH-23390 and clozapine display a substantial affinity for α2a-adrenergic receptors |
| CN1CCc2cccc3c2[C@H]1Cc1ccc(O)c(O)c1-3 [apomorphine] | – | apomorphine, SCH-23390 and clozapine display a substantial affinity for α2a-adrenergic receptors |
| CN1CCN(C2=Nc3cc(Cl)ccc3Nc3ccccc32)CC1 [clozapine] | – | apomorphine, SCH-23390 and clozapine display a substantial affinity for α2a-adrenergic receptors |

Reference: paper PMC2858410 (The Journal of comparative neurology, 2008)
